From the supplement of paper PMC10627819

Tests used:
S. aureus DSM 20231 = assay: Bliss interaction score (quartile over a dose matrix) (fitness difference); higher = more antagonism (negative = synergy)
In short: (§1)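 Fitness was OD595 at entry into stationary phase divided by the plate's robust no-drug mean and capped at 1; single-drug fitness was inferred from combination data. The Bliss score is observed minus expected (product) fitness, summarised by quartiles over technical, biological and donor/recipient replicates.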

B. subtilis 168 = assay: as above
In short: as §1

S. aureus Newman = assay: as above
In short: as §1

S. pneumoniae D39V [1] = assay: as above
In short: as §1

S. pneumoniae D39V [2] = assay: fitness (endpoint OD595 vs no drug) (fraction); higher = more growth
In short: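 At 37 °C, bacteria in TSB, LB Lennox or CY were grown in 384-well plates from a starting OD595 of 0.01. OD595 was measured every 30 min for 14 h, with the first reading used as background. Fitness is the optical density at the switch to stationary phase as a fraction of the robust mean of no-drug control wells, capped at 1.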
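For Bliss interaction score (quartile over a dose matrix) in this document: first quartile when negative (synergy) and third quartile when positive (antagonism).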

O=C1CN(/N=C/c2ccc([N+](=O)[O-])o2)C(=O)N1 [Nitrofurantoin] + CN(N=O)C(=O)N[C@@H](C=O)[C@@H](O)[C@H](O)[C@H](O)CO [Streptozotocin]
Conditions | Bliss interaction score
B. subtilis 168 | 0.0585
S. aureus DSM 20231 | -0.034
S. aureus Newman | 0.0906
S. pneumoniae D39V [1] | 0.0714

fitness, S. pneumoniae D39V [2]
Conditions | partner 1.2 µg/mL | partner 2.4 µg/mL | partner 4.8 µg/mL
first compound 1.285 µg/mL | 0.928 | 0.94 | 0.939
first compound 2.57 µg/mL | 0.939 | 0.952 | 0.957

fitness, S. pneumoniae D39V [2], one replicate
Conditions | first compound 2 µg/mL | first compound 4 µg/mL | first compound 5.14 µg/mL | first compound 8 µg/mL
partner 1.2 µg/mL | 0.954 | 0.959 | 0.86 | 0.818
partner 2.4 µg/mL | 0.961 | ≥ 1 | 0.919 | 0.842
partner 4.8 µg/mL | ≥ 1 | ≥ 1 | 0.871 | ≥ 1

O=C1CN(/N=C/c2ccc([N+](=O)[O-])o2)C(=O)N1 [Nitrofurantoin] + CN[C@@H]1[C@H](O)[C@H](NC)[C@H]2O[C@@]3(O)C(=O)C[C@@H](C)O[C@H]3O[C@@H]2[C@H]1O [Spectinomycin]
Conditions | Bliss interaction score
B. subtilis 168 | -0.0552
S. aureus DSM 20231 | -0.0743
S. aureus Newman | -0.0511
S. pneumoniae D39V [1] | 0.0652

fitness, S. pneumoniae D39V [2]
Conditions | partner 4 µg/mL | partner 8 µg/mL | partner 16 µg/mL
first compound 1.285 µg/mL | 0.96 | 0.889 | 0.829
first compound 2.57 µg/mL | 0.935 | 0.917 | 0.829

fitness, S. pneumoniae D39V [2], one replicate
Conditions | first compound 2 µg/mL | first compound 4 µg/mL | first compound 5.14 µg/mL | first compound 8 µg/mL
partner 4 µg/mL | 0.966 | 0.948 | 0.859 | 0.895
partner 8 µg/mL | 0.892 | 0.864 | 0.865 | 0.879
partner 16 µg/mL | – | – | 0.793 | –

O=C1CN(/N=C/c2ccc([N+](=O)[O-])o2)C(=O)N1 [Nitrofurantoin] + CN[C@@H]1[C@H](O[C@H]2[C@H](O[C@H]3[C@H](O)[C@@H](O)[C@H](N=C(N)N)[C@@H](O)[C@@H]3N=C(N)N)O[C@@H](C)[C@]2(O)C=O)O[C@@H](CO)[C@H](O)[C@H]1O [Streptomycin]
Conditions | Bliss interaction score
B. subtilis 168 | -0.0807
S. aureus DSM 20231 | -0.0532
S. aureus Newman | -0.0496
S. pneumoniae D39V [1] | 0.0583

fitness, S. pneumoniae D39V [2]
Conditions | first compound 1.285 µg/mL | first compound 2 µg/mL | first compound 2.57 µg/mL | first compound 4 µg/mL | first compound 8 µg/mL
partner 2 µg/mL | 0.956 | – | 0.938 | – | –
partner 4 µg/mL | 0.953 | 0.956 | 0.921 | 0.936 | 0.768
partner 8 µg/mL | 0.927 | 0.884 | 0.918 | 0.887 | 0.743

fitness, S. pneumoniae D39V [2], one replicate
Conditions | first compound 2 µg/mL | first compound 4 µg/mL | first compound 5.14 µg/mL | first compound 8 µg/mL
partner 2 µg/mL | 0.965 | 0.948 | 0.86 | 0.76
partner 4 µg/mL | – | – | 0.8 | –
partner 8 µg/mL | – | – | 0.809 | –
partner 16 µg/mL | 0.743 | 0.753 | – | 0.585

O=C1CN(/N=C/c2ccc([N+](=O)[O-])o2)C(=O)N1 [Nitrofurantoin] + CN[C@H](CC(C)C)C(=O)N[C@H]1C(=O)N[C@@H](CC(N)=O)C(=O)N[C@H]2C(=O)N[C@H]3C(=O)N[C@H](C(=O)N[C@H](C(=O)O)c4cc(O)cc(O)c4-c4cc3ccc4O)[C@H](O)c3ccc(c(Cl)c3)Oc3cc2cc(c3O[C@@H]2O[C@H](CO)[C@@H](O)[C@H](O)[C@H]2O[C@H]2C[C@](C)(N)[C@H](O)[C@H](C)O2)Oc2ccc(cc2Cl)[C@H]1O [Vancomycin]
Conditions | Bliss interaction score
B. subtilis 168 | 0.0308
S. aureus DSM 20231 | 0.0253
S. aureus Newman | 0.0534
S. pneumoniae D39V [1] | 0.142

fitness, S. pneumoniae D39V [2]
Conditions | first compound 1.285 µg/mL | first compound 2 µg/mL | first compound 2.57 µg/mL | first compound 4 µg/mL | first compound 8 µg/mL
partner 0.03125 µg/mL | – | 0.926 | – | 0.959 | 0.892
partner 0.0625 µg/mL | – | 0.882 | – | 0.959 | 0.894
partner 0.125 µg/mL | 0.969 | 0.748 | 0.973 | 0.851 | –
partner 0.25 µg/mL | 0.611 | – | 0.653 | – | –
partner 0.5 µg/mL | 0.0954 | – | 0.0768 | – | –

S. pneumoniae D39V [2], first compound 5.14 µg/mL, one replicate
Conditions | fitness
partner 0.125 µg/mL | 0.965
partner 0.25 µg/mL | 0.446
partner 0.5 µg/mL | 0.118

O=C1CN(/N=C/c2ccc([N+](=O)[O-])o2)C(=O)N1 [Nitrofurantoin] + CO[C@H]1/C=C/O[C@@]2(C)Oc3c(C)c(O)c4c(O)c(c(/C=N/N5CCN(C)CC5)c(O)c4c3C2=O)NC(=O)/C(C)=C\C=C\[C@H](C)[C@H](O)[C@@H](C)[C@@H](O)[C@@H](C)[C@H](OC(C)=O)[C@@H]1C [Rifampicin]
Conditions | Bliss interaction score
B. subtilis 168 | -0.0448
S. aureus DSM 20231 | -0.0228
S. aureus Newman | -0.0316
S. pneumoniae D39V [1] | -0.117

fitness, S. pneumoniae D39V [2]
Conditions | first compound 1.285 µg/mL | first compound 2 µg/mL | first compound 2.57 µg/mL | first compound 4 µg/mL | first compound 8 µg/mL
partner 0.05 µg/mL | 0.825 | 0.789 | 0.798 | 0.781 | 0.668
partner 0.1 µg/mL | 0.372 | – | 0.353 | – | 0.351
partner 0.2 µg/mL | 0.129 | – | 0.166 | – | –

fitness, S. pneumoniae D39V [2], one replicate
Conditions | first compound 2 µg/mL | first compound 4 µg/mL | first compound 5.14 µg/mL | first compound 8 µg/mL
partner 0.025 µg/mL | 0.873 | 0.85 | – | 0.782
partner 0.05 µg/mL | – | – | 0.806 | –
partner 0.1 µg/mL | – | – | 0.369 | –
partner 0.2 µg/mL | 0 | 0 | 0.171 | 0

O=C1CN(/N=C/c2ccc([N+](=O)[O-])o2)C(=O)N1 [Nitrofurantoin] + COc1ccc(C[C@H](N)C(=O)N[C@H]2[C@@H](O)[C@H](n3cnc4c(N(C)C)ncnc43)O[C@@H]2CO)cc1 [Puromycin]
Conditions | Bliss interaction score
B. subtilis 168 | 0.1
S. aureus DSM 20231 | 0.0289
S. aureus Newman | 0.098
S. pneumoniae D39V [1] | -0.135

fitness, S. pneumoniae D39V [2]
Conditions | partner 1 µg/mL | partner 2 µg/mL | partner 4 µg/mL
first compound 1.285 µg/mL | 0.989 | 0.966 | 0.808
first compound 2.57 µg/mL | 0.947 | 0.901 | 0.742

fitness, S. pneumoniae D39V [2], one replicate
Conditions | first compound 2 µg/mL | first compound 4 µg/mL | first compound 5.14 µg/mL | first compound 8 µg/mL
partner 1 µg/mL | 0.901 | 0.899 | 0.905 | 0.652
partner 2 µg/mL | 0.821 | 0.915 | 0.88 | 0.711
partner 4 µg/mL | 0.757 | 0.767 | 0.592 | 0.38
